# Measurements published in US8557776B2, “Compounds and methods for 18F labeled agents” (Bayer Pharma AG, priority 2006, dated 2013).
# *1 amine or outer side, *2 acyl side, *3 side chain or, on linkers, in order; H or OH if unused. Where a SMILES comes first, the peptide text is derived from it. [ ]: non-standard residue; d: D form. The star is where a group is joined. γ4hIle = CC[C@H](C)[C@@H](CCC(=O)[*:2])N[*:1]; Benzoyl(3-CN,4-F) = N#Cc1cc(C(=O)*)ccc1F; Ava = NCCCCC(=O)O
# What was measured:
# [1] = Table 1
# [2] = system: human prostate cancer PC-3; assay: Biodistribution of F-18-Bombesin Analog in nude mice bearing human prostate cancer PC-3; type: in vivo
# Protocol: Nude mice bearing human prostate cancer PC-3 were injected with 100 μl radioactive peptide dissolved in PBS containing 135 kBq per animal. For blocking 100 μg unlabeled gastrin-releasing peptide was co-injected. One hour post injection the animals were sacrificed and organs dissected for counting in a gamma-counter. Values are expressed as percent of the injected dose per gram organ weight.
Compound,Panc. % [1],Tumor/Tissue-Ratios T/Blood ([2]; 1 h Blocking: 100 μg unlabeled gastrin-releasing peptide co-injected),Tumor/Tissue-Ratios T/Blood ([2]; 1 h post injection),"tumor-tissue ratio relative to that of 18F-choline (FCH) and 18F-FB-Lys-BN ([2]; FIG. 8, protocol as above)","accumulation in tumor (in words) ([2]; PC-3 tumor, 1 h post injection)",specificity of targeting (in words) ([2]; blocking values low in tumor on co-injection of gastrin-releasing peptide)
"3-CF3,4-F-Benzoyl-Arg-Ava-Gln-Trp-Ala-Val-NMeGly-His-Sta-Leu-NH2 (SEQ ID NO: 421) (RXQWAVGHXL; 3-CF3,4-F-benzoyl N-cap, Ava, NMeGly, Sta, C-amide)","1,42%",,,,,
"CC[C@H](C)[C@@H](CCC(=O)N[C@@H](CC(C)C)C(N)=O)NC(=O)[C@H](Cc1c[nH]cn1)NC(=O)CNC(=O)[C@@H](NC(=O)[C@H](C)NC(=O)[C@H](Cc1c[nH]c2ccccc12)NC(=O)[C@H](CCC(N)=O)NC(=O)CCCCNC(=O)c1ccc(F)c(C#N)c1)C(C)C [F-18-Bombesin Analog] ({Benzoyl(3-CN,4-F)-Ava}-QWAVGH[γ4hIle]L-NH2; N-terminus assumed)",,1.57 ± 0.22,21.03 ± 11.92,2.5 time higher,accumulates in tumor,specific
